Data on six compounds can be found in patent US20240383874A1, “BENZENE RING DERIVATIVE, AND COMPOSITION AND PHARMACEUTICAL USE THEREOF” (Xizang Haisco Pharmaceutical Co., Ltd., priority 2020, published 2024).

Molecules are shown by their SMILES. Counter-ions that a name gives are not always drawn. Like-named read-outs stand apart in the source and are kept apart here.

One data set concerns 22RV1 cells. As to the kind of experiment: Experiment 2 on inhibiting 22RV1 cell proliferation (7 days, CellTiter-Glo). It counts as cell-based. Conditions: 1% css-FBS phenol red-free medium, incubated with compound 7 days, read-out: IC50 values on proliferation inhibition of 22RV1 cells. In short, it runs like this: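 22RV1 cells plated at 2000/well in phenol red-free medium with 1% css-FBS and treated next day with compound for 7 days at 37 °C. Viability read by CellTiter-Glo luminescence relative to DMSO vehicle; IC50 from dose-response fit.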
In general terms: In ATP-based viability assays light output follows the ATP content of the culture.

Data set [1] in a line: Pharmacokinetic test in rats. The class given is in vivo. Conditions: rat, po; male SD rats, single dose i.g. 5 mg/kg, plasma, 0-24 h. The protocol:
Test objective: in this test, a single dose of test compounds was administered to SD rats intragastrically, and the concentrations of the test compounds in plasma of the rats were measured to evaluate pharmacokinetic characteristics of the test compounds in the rats.
Test animals: male SD rats, 200-250 g, 6-8 weeks old, 3 rats/compound, purchased from Chengdu Dossy Experimental Animals Co., Ltd.
Test method: on the day of the test, 3 SD rats were randomly grouped according to their body weights. The animals were fasted with water available for 12 to 14 hours one day before the administration of a test compound, and were fed 4 hours after the administration.
Sampling: before and after the administration, 0.1 mL of blood was taken from the orbits of the rats under isoflurane anesthesia, and placed in an EDTAK2 centrifuge tube. Centrifugation was carried out at 5000 rpm at 4C for […], and the plasma was collected.
Time points for plasma collection in G1 group: 0, 5 min, 15 min, 30 min, 1 h, 2 h, 4 h, 6 h, 8 h, and 24 h.
Before analysis and detection, all samples were stored at −80° C. The samples were analyzed quantitatively by LC-MS/MS.

Broadly, the AUC(0-t) is the area under the concentration-time curve up to a stated or last time point. Higher therefore signals high exposure. Turning to `Cn1c(=O)n(C2CCC(=O)NC2=O)c2ccc(N3CCC(C4CCN(CC5CCN(c6nccc(COc7ccc(C(C)(C)c8cc(Cl)c(OCCCl)c(C#N)c8)cc7)n6)CC5)CC4)CC3)cc21` (stereo not drawn) [Compound 98 trifluoroacetate, 3-chloro-2-(2-chloroethoxy)-5-(2-(4-((2-(4-((1′-(1-(2,6-dioxopiperidin-3-yl)-3-methyl-2-oxo-2,3-dihydro-1H-benzo[d]imidazol-5-yl)-[4,4′-bipiperidin]-1-yl)methyl)piperidin-1-yl)pyrimidin-4-yl)methoxy)phenyl)propan-2-yl)benzonitrile], the IC50 in the data set on 22RV1 cells (Homo sapiens, 22Rv1, 168 h) came to 621 nM. The compound also displayed an AUC(0-t) in data set [1] of 492 ± 266 ng·h/mL.

With `COc1c(Cl)cc(C(C)(C)c2ccc(OCc3ccnc(N4CCC(CN5CCC(C6CCN(c7cc8c(cc7F)n(C7CCC(=O)NC7=O)c(=O)n8C)CC6)CC5)CC4)n3)cc2)cc1C#N` (stereo not drawn) [Compound 123 trifluoroacetate, 3-chloro-5-(2-(4-((2-(4-((1′-(1-(2,6-dioxopiperidin-3-yl)-6-fluoro-3-methyl-2-oxo-2,3-dihydro-1H-benzo[d]imidazol-5-yl)-[4,4′-bipiperidin]-1-yl)methyl)piperidin-1-yl)pyrimidin-4-yl)methoxy)phenyl)propan-2-yl)-2-methoxybenzonitrile], the IC50 with 22RV1 cells (Homo sapiens, 22Rv1, 168 h) came out at 527 nM. Besides, in data set [1], the AUC(0-t) is 1190 ± 724 ng·h/mL.

For `CC(Oc1ccc(C(C)(C)c2cc(Cl)cc(C#N)c2)cc1)c1ccnc(N2CCC(CN3CCC(C4CCN(c5cc6c(cc5F)C(=O)N(C5CCC(=O)NC5=O)C6=O)CC4)CC3)CC2)n1` (stereo not drawn) [Compound 127, 3-chloro-5-(2-(4-(1-(2-(4-((1′-(2-(2,6-dioxopiperidin-3-yl)-6-fluoro-1,3-dioxoisoindolin-5-yl)-[4,4′-bipiperidin]-1-yl)methyl)piperidin-1-yl)pyrimidin-4-yl)ethoxy)phenyl)propan-2-yl)benzonitrile], the IC50 with 22RV1 cells was 549 nM. The AUC(0-t) in data set [1] was found to be 1860 ± 185 ng·h/mL.

As for `CC(C)(c1ccc(OCc2ccnc(N3CCC4(CCN(CC5CC6(CCN(c7ccc8c(c7)C(=O)N(C7CCC(=O)NC7=O)C8=O)CC6)C5)CC4)CC3)n2)cc1)c1cc(Cl)cc(C#N)c1` (stereo not drawn) [Compound 129, 3-chloro-5-(2-(4-((2-(9-((7-(2-(2,6-dioxopiperidin-3-yl)-1,3-dioxoisoindolin-5-yl)-7-azaspiro[3.5]nonan-2-yl)methyl)-3,9-diazaspiro[5.5]undecan-3-yl)pyrimidin-4-yl)methoxy)phenyl)propan-2-yl)benzonitrile], the IC50 in the data set with 22RV1 cells was 569 nM. Further, the AUC(0-t) in data set [1] was found to be 812 ± 304 ng·h/mL.

`CC(C)(c1ccc(OCc2ccnc(N3CCC(N4CCC(C5CCN(c6ccc7c(c6)C(=O)N(C6CCC(=O)NC6=O)C7=O)CC5)CC4)CC3)n2)cc1)c1cc(Cl)cc(C#N)c1` (stereo not drawn) [Compound 131, 3-chloro-5-(2-(4-((2-(1″-(2-(2,6-dioxopiperidin-3-yl)-1,3-dioxoisoindolin-5-yl)-[4,1′:4′,4″-terpiperidin]-1-yl)pyrimidin-4-yl)methoxy)phenyl)propan-2-yl)benzonitrile]: the IC50 in the data set on 22RV1 cells is 507 nM. The compound further came in with an AUC(0-t) in data set [1] of 446 ± 225 ng·h/mL.

Regarding `COc1c(Cl)cc(C(C)(C)c2ccc(OCc3ccnc(N4CCC(CN5CCC(C6CCN(c7ccc(C(=O)NC8CCC(=O)NC8=O)nc7)CC6)CC5)CC4)n3)cc2)cc1C#N` (stereo not drawn) [Compound 112 trifluoroacetate, 5-(1′-((1-(4-((4-(2-(3-chloro-5-cyano-4-methoxyphenyl)propan-2-yl)phenoxy)methyl)pyrimidin-2-yl)piperidin-4-yl)methyl)-[4,4′-bipiperidin]-1-yl)-N-(2,6-dioxopiperidin-3-yl)picolinamide], in the data set on 22RV1 cells (Homo sapiens, 22Rv1, 168 h), the IC50 was 463 nM. The same compound registered an AUC(0-t) in data set [1] of 827 ± 211 ng·h/mL.
